Measurements as given in patent US20260226094A1, “STEROL-BASED CATIONIC LIPIDS WITH AROMATIC HEAD GROUPS” (SANOFI, priority 2023, published 2026).

How the values were obtained:
[1] = Lipid degradability by mouse lung S9 in vitro; assay type: in vitro ADME; settings: 2 μM lipid, 2.4 mg/ml lung S9, pH 7.4, 37° C.
Description: (§1) Lipid degradability by MOUSE/HUMAN lung S9 in vitro
(§2) Assay format—4 or 5 time points in triplicate.
(§3) • 1) Plan experiment, compounds, and reagents. • 2) Dissolve each lipid in DMSO or IPA to make 5 mM stock, then dilute by IPA to 200 μM work solution. • 3) Thaw mouse and human lung S9. • 4) Prepare pooled incubation mixture as in the reaction formulas below on ice. • 5) Aliquot 495 μL incubation mixture prepared in step #4 to each well of a 2 mL 96-well plate. • 6) Add 5 μL compound to each well to initiate the reaction. Take t0 samples (as in step #8). • 7) Cover the plate with 2 layers of breathable seals and incubate the plate on an orbital shaker at 150 rpm in a 37° C. CO2 incubator. • 8) At each time point, pipette to mix the incubation mixture 5 times, then take 70 μL of incubation mixture to a fresh plate. Store in −20° C. freezer immediately. • 9) Add 210 μL (3× volume) of the cold stop solution to each well of the sample plates collected. Mix at 600 rpm on an orbital shaker for 15 min. • 10) Centrifuge the quenched plates at 3800 rpm for 10 min at 4° C. and transfer supernatant to fresh plates. • 11) Load the supernatant on filter plates and centrifuge again at 3800 rpm for 5 min at 4° C. Collect final samples in fresh plates for LC/MS.
(§4) • 4-5 Time points (hour): e.g. 0, 4, 8, 24, 48 hr • stop solution: 1:1:1 ACN/MeOH/IPA (v/v/v) with propranolol & MC3 as internal standard. Store at 4° C.

[2] = Lipid degradability by human lung S9 in vitro; assay type: in vitro ADME; settings: 2 μM lipid, 2.4 mg/ml lung S9, pH 7.4, 37° C.
Description: as §1, §2, §3, §4

male CD1 mice = experiment: Delivery of FFL mRNA by intratracheal administration, IVIS luciferase imaging of the lung; assay type: in vivo, mouse; settings: lipid nanoparticles with FFL mRNA, single intratracheal administration via catheter, about 24 hours post-dose
Description: Lipid nanoparticle formulations listed in Table 1 comprising FFL mRNA, cationic lipid, DMG-PEG2000, cholesterol and DOPE were administered to male CD1 mice (6-8 weeks old) by a single intratracheal administration via Catheter® ([…]) while under anesthesia. At approximately 24 hours post-dose, the animals were dosed with luciferin at 150 mg/kg (60 mg/ml) by intraperitoneal injection at 2.5 ml/kg. After 5-15 minutes, all animals were imaged using an IVIS imaging system to measure luciferase production in the lung.

mice = experiment: Delivery of FFL mRNA by intranasal administration, IVIS luminescent imaging; assay type: in vivo, mouse; settings: lipid nanoparticle with FFL mRNA, dose 10 μg/Animal, 24 hours post dose
Description: Lipid nanoparticle formulation 3 listed in Table 1 comprising FFL mRNA, cationic lipid, DMG-PEG2000, cholesterol and DOPE was administered in mice via pipetting the formulations at 10 μg/Animal and 15 μl per nostril. On Day 2, 24 hours post dose (±5%), all animals undergo a luminescent imaging session using IVIS with separate ROIs on the nose and lungs. Whole body imaging are performed 10-15 minutes following D-Luciferin administration. All animals are dosed with 0.2 mL of 15 mg/mL D-luciferin solution via intraperitoneal (IP) injection. Anesthesia performed by isoflurane during the procedure and animals will be placed sternal recumbency (face-down). […]

Row | SMILES | In vitro degradation Mouse lung S9 [1] | In vitro degradation Human lung S9 [2] | in vivo FFL protein production (luciferase activity in the lung, FIG. 5) (male CD1 mice) | FFLuc (Avr. Rad.) (mice)
1 | COc1cc(C(=O)OCCCNC(=N)N)cc(OC)c1OC(=O)CCO[C@H]1CC[C@@]2(C)C(=CC[C@@H]3C2CC[C@]2(C)[C@@H]([C@H](C)CCCC(C)C)CC[C@@H]32)C1 (some centres unmarked) [Compound IV] | 69.6 h | 62.9 h | high levels of in vivo FFL protein production | 833,279 p/s/cm^2/sr
2 | COc1cc(C(=O)OCCNC(=N)N)cc(OC)c1OC(=O)CCO[C@H]1CC[C@@]2(C)C(=CC[C@H]3[C@@H]4CC[C@H]([C@H](C)CCCC(C)C)[C@@]4(C)CC[C@@H]32)C1 [Compound III] | 50.1 h | 39.2 h | high levels of in vivo FFL protein production | 890,880 p/s/cm^2/sr
3 | COc1cc(C(=O)OCCCN(C)C)cc(OC)c1OC(=O)CCO[C@H]1CC[C@@]2(C)C(=CC[C@H]3[C@@H]4CC[C@H]([C@H](C)CCCC(C)C)[C@@]4(C)CC[C@@H]32)C1 [Compound II] | 39.3 h | 38.2 h |  | 592,290 p/s/cm^2/sr
4 | COc1cc(C(=O)OCCN(C)C)cc(OC)c1OC(=O)CCC(=O)O[C@H]1CC[C@@]2(C)C(=CC[C@H]3[C@@H]4CC[C@H]([C@H](C)CCCC(C)C)[C@@]4(C)CC[C@@H]32)C1 [Compound I] | 23.6 h | 22.2 h |  | 421,679 p/s/cm^2/sr
